Test results reported in article PMC6152678, “In Vitro Comparative Study of the Inhibitory Effects of Mangiferin and Its Aglycone Norathyriol towards UDP-Glucuronosyl Transferase (UGT) Isoforms” (Molecules : A Journal of Synthetic Chemistry and Natural …, 2017).
Several values for one entry are separate records, joined by “and”; a condition that tells them apart may be missing. Equal values may be shown once. Read-outs that look alike come from different tables or passages of the source.

What was measured:
[1] = design: method as in PMID 26434292; conditions: human, oral 0.9 g mangiferin, cited from earlier work
[2] = rat, cited from earlier work
[3] = target: T1, UGT2B15 (Homo sapiens, UniProt P54855); experiment: Inhibition of recombinant UGT-catalyzed 4-MU glucuronidation; format: biochemical; conditions: pH 7.4, probe 4-methylumbelliferone (4-MU), 250 μM, 100 μM compound, 4-MU probe substrate, negative = activation
T1 construct: purchased BD Gentest Corp. (Woburn, MA, USA); host or cells: baculovirus-infected insect cells
T1 sequence (P54855 24-530): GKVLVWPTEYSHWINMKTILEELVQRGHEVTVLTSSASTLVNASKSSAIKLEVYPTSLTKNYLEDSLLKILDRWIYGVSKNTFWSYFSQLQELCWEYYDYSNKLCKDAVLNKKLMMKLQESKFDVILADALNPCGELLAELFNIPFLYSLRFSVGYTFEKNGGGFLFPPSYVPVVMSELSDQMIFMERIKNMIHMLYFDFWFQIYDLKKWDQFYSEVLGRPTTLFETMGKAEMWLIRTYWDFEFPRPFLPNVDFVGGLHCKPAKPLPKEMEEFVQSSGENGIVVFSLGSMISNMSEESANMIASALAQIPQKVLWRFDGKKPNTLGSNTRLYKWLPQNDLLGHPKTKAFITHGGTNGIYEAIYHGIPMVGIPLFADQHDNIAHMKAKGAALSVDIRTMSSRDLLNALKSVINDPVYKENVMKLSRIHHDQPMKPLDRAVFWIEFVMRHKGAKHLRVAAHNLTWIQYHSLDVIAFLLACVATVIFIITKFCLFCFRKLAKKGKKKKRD

Row | SMILES | concentration in plasma reached ([1]; about 1 h) | time at which the plasma concentration was reached [1] | maximum concentration in the plasma ([2]; oral MGF 70mg/kg) | maximum concentration in the plasma ([2]; oral MGF 120 mg/kg) | inhibition at 120 min, 100 µM [3] [%]
1 | O=c1c2cc(O)c(O)cc2oc2cc(O)c([C@@H]3O[C@H](CO)[C@@H](O)[C@H](O)[C@H]3O)c(O)c12 [MGF, 1,3,6,7-tetrahydroxyxanthone-C-2-β-D-glucoside] | 38.64 ± 6.75 ng/mL and 0.091 ± 0.016 μM | about 1 h | 0.19 μg/mL and 0.45 μM | 8.13 ± 1.96 μg/mL and 19.2 ± 4.64 μM | 8.9
2 | O=c1c2cc(O)c(O)cc2oc2cc(O)cc(O)c12 [NTR, 1,3,6,7-tetrahydroxyxanthone] |  |  |  |  | 46.3
